In data set [1] the test system is Sprague-Dawley rats. Kind of data set: In vivo sedative/hypnotic testing, IV bolus, rats. Further details: species or system rat. The procedure: (§1) Animals were housed in a dedicated room at the vivarium of VivoPath Inc., located at Redstone Center, 55 Union Street, Worcester, Mass. Housing and care was as specified in the USDA Animal Welfare Act (9 CFR, Parts 1, 2, and 3) and as described in the Guide for the Care and Use of Laboratory Animals from the National Research Council. Environmental conditions of housing rooms are set at the following ranges: temperature: 70±7° F. (22±4° C.), humidity: 50±20%, light cycle: 12-hour light/12-hour dark cycle—lights on at 7 am and off at 7 pm., air changes: ten or more air changes per hour with 100% fresh air. The animals' body weights were measured prior to the first dose on each experimental day.
Adult male Sprague-Dawley rats (225-300 g) were purchased from Harlan (South Easton, Mass.).
(§2) Drugs were prepared in either dimethylsulfoxide/saline or saline vehicle or hydroxypropyl-β-cyclodextrin (20% in water, pH 7.0) solution and were administered as an intravenous bolus injection. Animals received 1-4 doses of drug(s) during an experimental day, either ascending doses or different drugs. Doses were administered at intervals equal to the longer of 1 h or 10-times the duration of apparent sedative/hypnotic effects from the previous dose. The sedative/hypnotic properties of the drugs were evaluated by observation of the rats, ranging from mild excitation, mild sedation apparent due to reduced activity, and moderate sedation to hypnosis reflected by loss of righting reflex (LORR, the ability to place rear and hind legs under the body, as well as attenuation/loss of nociceptive reflexes).

Data set [2] has as its system dogs and monkeys. Kind of data set: Preliminary studies of duration of action in dogs and monkeys. The data set is classed as in vivo. Particulars: large animals, similar to that in rats.
Data set [3] can be described thus: In vitro metabolic half-life of hypnotics in rat blood. The format is in vitro ADME. To be noted: rat blood; for half-life at 100 μM: Sprague-Dawley, rat. The procedure: On the day of study, whole blood was drawn from the femoral venous catheters of 3 Sprague-Dawley rats (1-2 ml/rat), immediately anticoagulated with heparin (38 U), pooled, and stored on ice. A 1 ml aliquot of blood was warmed at 37° C. for 5 minutes and hypnotic (from a 40 mM in dimethyl sulfoxide stock solution) was added to a final concentration of 100 μM. After the desired incubation time, a 150 μl sample was removed and the metabolic reaction was quenched with 150 μl acetonitrile (Sigma-Aldrich, St. Louis, Mo.). Zero time point samples were prepared by adding 150 μl acetonitrile to blood prior to adding hypnotic (from a 4 mM in dimethyl sulfoxide stock solution). The quenched samples were centrifuged and the resultant supernatant separated and stored at −20° C. until analyzed. Hypnotic concentrations in thawed samples were determined by high performance liquid chromatography using a Varian Prostar system with a 4.6×250 mm Proto 300 C18 column (Nest Group, Southborough, Mass.) with the UV detector set at 240 nm.

Data set [4] deals with ICR mice. Kind of data set: In vivo sedative/hypnotic testing, IV bolus, mice. Further details: species or system mouse. As for the experimental part: as §1
Adult ICR mice (20-30 g) were purchased from Harlan (South Easton, Mass.). Drugs were administered as intravenous bolus injection in a tail vein.
as §2

A short description of data set [5]: Octanol:water partition coefficients. The format is physicochemical. To be noted: 10 mM Tris pH 7.4; read-out: Octanol/Water Partition Coefficient ± SD (converted). The procedure: One mg of each hypnotic was added to 10 ml of water buffered with 10 mM Tris (pH 7.4) and 0.5 ml or 1 ml of octanol. The mixture was stirred overnight and then centrifuged to more fully separate the organic and aqueous phases. The relative hypnotic concentrations in each phase (i.e. the partition coefficient) were determined by high performance liquid chromatography as described for blood.

The test system of data set [6] is rats. Kind of data set: loss of righting reflexes (LORR) assay after IV bolus. Particulars: for ED50: Rattus norvegicus, iv, read-out: ED50 ± SD; for Slope of Duration vs. Log Dose ± SD: duration of LORR vs log dose, rats.
Description: Adult male Sprague-Dawley rats (230-350 gm) were purchased from Charles River Laboratories (Wilmington, Mass.) and housed in the Massachusetts General Hospital Center for Comparative Medicine animal care facility. All drugs were administered through a femoral venous catheter pre-implanted by the vendor prior to animal delivery to our animal care facility.
Immediately after injection, rats were turned supine. […] A stopwatch was used to measure the duration of LORR, which was defined as the time from drug injection until the animal spontaneously righted itself.
Where [7] appears, read: pooled heparinised whole blood, 37° C., 100 μM, read-out: Blood Half-Life (95% CI).

Read-outs that look alike come from different tables or passages of the source.

On to `COC(=O)CCOC(=O)c1cncn1[C@H](C)c1ccccc1` [Methoxycarbonyl etomidate, methoxycarbonyl etomidate, reference compound], for which, in data set [1] (IV bolus, doses as in the cell), the Rat response result was “Sedation/hypnosis induced at 8 &”. Also, the ED50 in data set [1] (Rattus norvegicus, sedation/hypnosis, IV) is approximately 8 mg/kg; in data set [4] (Mus musculus, sedation/hypnosis, IV), approximately 10 mg/kg; in data set [6] it was 5.3 ± 1.5 mg/kg. Besides, the “slope of duration of LORR vs logarithm of dose” value in data set [1] (rats) and in data set [4] (mice) was “approximately 1.0” throughout. Further, the duration of action in data set [2] lay within 1 to 2 min. In addition, the half-life at 100 μM in data set [3] (setting [7]) was 24.6 s; in data set [3] (37° C., 100 μM, read-out: Blood Half-Life (95% CI)) it was 8.4 s; in data set [3] (bound based on the lower limit of quantification, read-out: metabolic half-life in rat blood (converted)), 20 s. Further, in data set [5], the logD was 2.28. In addition, in data set [6], the “Slope of Duration vs. Log Dose ± SD” value is given as 1.0±0.3 min/(log mg/kg).
As for `COC(=O)[C@H](OC(=O)c1cncn1[C@H](C)c1ccccc1)C(C)C` [S-isopropyl-methoxycarbonyl metomidate], in data set [3] (setting [7]), the half-life at 100 μM is 930 s. In addition, the “metabolic half-life of S form compared with R form” value in data set [3] is listed as “two orders of magnitude longer”. The logD in data set [5] was 3.46. In data set [6], the 50% effective dose (ED50) is 1.2 ± 0.19 mg/kg and the “Slope of Duration vs. Log Dose ± SD” value is 12.1±1.1 min/(log mg/kg).
Consider `COC(=O)[C@@H](OC(=O)c1cncn1[C@H](C)c1ccccc1)C(C)C` [R-isopropyl-methoxycarbonyl metomidate], for which the half-life at 100 μM in data set [3] (setting [7]) was 9 s. In addition, in data set [5], the logD is 3.58. Moreover, in data set [6], the ED50 was determined as 3.6 ± 0.8 mg/kg. Besides, the “death of a rat after dosing” value in data set [6] (one rat, 20 mg/kg dose) is “died after receiving a 20 mg/kg dose”.
`COC(=O)C(C)(C)COC(=O)c1cncn1[C@H](C)c1ccccc1` [α-dimethyl- methoxycarbonyl etomidate, α-dimethyl-MOC-etomidate]: the half-life at 100 μM in data set [3] (setting [7]) was 156 s. Further, the logD in data set [5] is 3.35. For the same molecule, the ED50 in data set [6] came out at 2.4 ± 1 mg/kg.
`COC(=O)[C@@H](C)OC(=O)c1cncn1[C@H](C)c1ccccc1` [(R)-methyl- methoxycarbonyl metomidate, R-methyl-methoxycarbonyl metomidate]: the half-life at 100 μM in data set [3] (setting [7]) was less than 1.8 s; in data set [3] (pooled heparinised whole blood, bound based on the lower limit of quantification, read-out: metabolic half-life in rat blood (converted)) it was less than 2 s. Moreover, the logD in data set [5] is 2.58. Further, the ED50 in data set [6] turned out to be 9.6 ± 1.9 mg/kg.

What is called ED50 is the midpoint of the dose-response relation. The half-life is the time needed for the level to fall by half in the phase considered.
